# From US9067949B2, “Benzofuro[3,2-c] pyridines and related analogs as serotonin sub-type 6 (5-HT6) modulators for the treatment of obesity, metabolic syndrome, cognition and schizophrenia” (Albany Molecular Research, Inc., priority 2011, dated 2015)
# How the values were obtained:
# human 5-HT6 receptor [1] = target: T1, human 5-HT6 receptor (Homo sapiens (Human), UniProt P50406); test: 5-HT6 radioligand binding assay (SPA format, [N-methyl-3H]-LSD); details: human 5-HT6 receptor membranes, 10 nM [N-methyl-3H]-LSD; Ki by Cheng-Prusoff; read-out: human 5HT6 Ki
# T1 sequence (P50406 whole entry): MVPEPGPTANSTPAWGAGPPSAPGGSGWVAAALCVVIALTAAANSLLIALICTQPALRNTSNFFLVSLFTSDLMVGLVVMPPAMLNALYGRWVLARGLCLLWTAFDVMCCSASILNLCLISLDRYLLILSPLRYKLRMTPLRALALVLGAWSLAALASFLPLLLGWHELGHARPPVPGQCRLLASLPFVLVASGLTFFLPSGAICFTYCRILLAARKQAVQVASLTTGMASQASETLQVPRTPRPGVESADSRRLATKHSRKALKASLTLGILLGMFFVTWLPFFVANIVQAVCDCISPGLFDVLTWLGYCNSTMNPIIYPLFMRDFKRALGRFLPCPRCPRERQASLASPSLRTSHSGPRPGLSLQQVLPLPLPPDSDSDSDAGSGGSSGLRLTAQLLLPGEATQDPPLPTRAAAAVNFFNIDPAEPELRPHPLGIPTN
# Outline: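 Human 5-HT6 receptor membranes were incubated overnight at room temperature with 10 nM [N-methyl-3H]-LSD and competitor in 50 mM Tris-HCl pH 7.5, 5 mM MgCl2, 1 mM EDTA, 4% DMSO, read by SPA. Nonspecific binding was defined with 100 μM 5-HT. IC50 came from ten-point duplicate curves; Ki via Cheng-Prusoff.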
# human 5-HT6 receptor [2] = target: T1, human 5-HT6 receptor; test: Cell-based functional assay measuring cAMP production (HTRF); details: for Emax: agonist mode, relative to 10 μM 5-HT Emax control, read-out: Emax (agonism); for functional activity at the human 5HT6 receptor: cell based assay
# Description: Compounds were further diluted to 4× assay concentrations with serum free media containing IBMX. […] Cells were lysed by addition of HTRFTM reagents (CisBio International) and after another 30 minute incubation, the plates were read on an AnalystGT (MDS) or SynergyHT (BioTek) microplate reader. […] Antagonist activity was expressed as the ratio of cAMP produced in a test well to the average cAMP produced in the EC80 challenge control wells. Agonist activity was determined after a full 30 minutes of incubation at room temperature, using 10 μM 5-HT as the Emax control. Cells were lysed by addition of HTRFTM reagents (CisBio International) and after another 30 minute incubation, the plates were read on an AnalystGT (MDS) or SynergyHT (BioTek) microplate reader. […] Agonist activity was expressed as the ratio of cAMP produced in a test well to the average cAMP produced in the Emax control wells. All cell-based experiments were performed in duplicate using ten concentrations of test compound with 5-HT (agonist mode) or a known antagonist (antagonist mode) included as additional controls in every run. […] For antagonists, the apparent dissociation constant (Kb) was calculated using a modified Cheng-Prusoff equation: Kb=IC50/([…][…])), where A=concentration of reference agonist in the assay and E[…]=EC50 value of the reference agonist.
Structure (SMILES),Ki (human 5-HT6 receptor [1]),Emax (human 5-HT6 receptor [2]),functional activity at the human 5HT6 receptor (human 5-HT6 receptor [2])
Cl.O=S(=O)(c1ccc(C(F)(F)F)cc1)c1cc(Cl)c2oc3c(c2c1)CNCC3 [Example 111],3.3 nM,27%,weak partial agonists
Cl.O=S(=O)(c1ccc(OC(F)(F)F)cc1)c1cc(Cl)c2oc3c(c2c1)CNCC3 [Example 112],4.9 nM,19%,weak partial agonists
